Experimental data from article PMC5346991 (ACS Medicinal Chemistry Letters, 2017).
One block for each molecule: values may come before it.

How the values were obtained:
HepG2 cells = experiment: HepG2 toxicity assay; assay type: cell-based; conditions: host cell toxicity
[1] = Mouse pharmacokinetics, plasma and brain exposure; assay type: in vivo, female BALB/c mice; conditions: 10 mg/kg i.p., for 4 h
[2] = Human plasma protein binding; assay type: in vitro ADME; conditions: Table 1

Structure (SMILES): COc1ccc(Nc2ccnc3ccc(-c4ccc(S(=O)(=O)N5CCOCC5)cc4)cc23)cc1C [Compound 13k]
HepG2 TC50 (HepG2 cells): 9.0 µM

plasma exposure relative to the EC50 [1]: > 120 fold
Structure (SMILES): O=S(=O)(c1ccc(-c2ccc3nccc(Nc4ccncn4)c3c2)cc1)N1CCOCC1 [Compound 13j, 6-(4-(morpholinosulfonyl)phenyl)-N-(pyrimidin-4-yl)quinolin-4-amine]

protein binding (% free) [2]: <0.03 % free
Structure (SMILES): O=S(=O)(c1ccc(-c2ccc3nccc(Nc4ccc(OCc5cccc(F)c5)cc4)c3c2)cc1)N1CCOCC1 [Compound 3]
